In patent publication US20260035339A1, “TETRAHYDRONAPHTHALENE DERIVATIVE” (ATRANSEN PHARMA LTD., priority 2022, published 2026):

Assays:
[1] = molecular target: T1, human LAT1 (Homo sapiens, UniProt Q01650); assay: Leucine uptake persistence inhibitory effect after compound removal in human-LAT1 highly expressing cell line; type: cell-based; details: 20 μM compound for 30 minutes, removed, uptake measured 30 minutes later
Method: The uptake of [^14C]L-leucine remaining after the compound of the present invention was caused to act in advance and removed in the human-LAT1 highly expressing cell line was examined. In the same manner as in the uptake inhibition test, the cell line was seeded in a 24-well plate, and an MEM (Minimum Essential Medium) medium containing 20 μM of the compound (racemic form) was added to the wells and allowed to act for 30 minutes. An MEM medium containing no compound was used as a control. After the compound was caused to act, the cells were washed 3 times with the MEM medium and cultured in the MEM medium for an additional 30 minutes. Thereafter, washing was performed 3 times with Na^+Free-HBSS, and 1 μM of [^14C]L-leucine dissolved in Na^+Free-HBSS was taken up for 1 minute. The cells were washed 3 times with ice-cooled Na^+Free-HBSS, and the amount of [^14C]L-leucine taken up in the cells was determined with a liquid scintillator. In the same manner as in other tests, the amount of protein in the cell fluid was measured, and the uptake amount of [^14C]L-leucine per 1 mg of protein in the cell fluid per minute was determined.

[2] = molecular target: T1, human LAT1; assay: [14C]L-leucine uptake inhibition test using human-LAT1 stably expressing HEK293 cell line; type: cell-based; set-up: having full-length cDNA of human LAT1 or LAT2 inserted under a promoter of CMV; expressed in transfected cells; key to Assay Data: degree of [14C]L-leucine uptake inhibition compared with BCH: a test compound having a higher inhibitory effect than BCH is denoted by A; a test compound having the same inhibitory effect as BCH is denoted by B; a test compound having a lower inhibitory effect than BCH is denoted by C; details: for Assay Data: degree of [14C]L-leucine uptake inhibition compared with BCH: compound (racemic form) and BCH at 0.1, 1.0, 10 μM, 1 μM [14C]L-leucine, 1 minute, Na+-free HBSS; for LAT1 inhibitory effect, compounds singled out (in words): same test as Table 1
From the text: HEK293 cells stably expressing human LAT1 and LAT2 were produced, respectively.
A shuttle vector DNA (LAT1: pcDNA3.1(+) -hLAT1, LAT2: pcDNA3.1(+) -hLAT2; expression vector pcDNA3.1 (+) was produced by Invitrogen Corp.) having ampicillin and neomycin resistance markers and having full-length cDNA of human LAT1 or LAT2 inserted under a promoter of CMV (cytomegalovirus) was constructed. This vector was transfected into the HEK293 cells by a method using Lipofectamine (registered trademark) 2000 (Invitrogen Corp.) according to the manufacturer's instructions. Thereafter, stably expressing cell clones of transgene were selected by a limiting dilution method in the presence of 0.9 mg/mL of Geneticin (registered trademark), and among the obtained cell clones, cell clones having a high uptake of [^14C]L-leucine and maintaining stable expression even after 10 passages were obtained. These cells were used for evaluating affinity and selectivity for LAT1 and LAT2.
1-1. It has been confirmed that LAT1 is responsible for L-leucine uptake in the absence of sodium ions in the human-LAT1 stably expressing HEK293 cell line. The human-LAT1 stably expressing HEK293 cell line was seeded in a 24-well plate at 1×10^5 Cell/Well, and the [^14C]L-leucine uptake inhibition test using the compound was performed after 48 hours. After the medium was removed and the cells were washed with Hank's balanced salt solution (Na^+-free HBSS) not containing sodium ions, the cells were cultured in Na^+-free HBSS for 10 minutes. Thereafter, 1 μM of [^14C]L-leucine was taken up in Na^+-free HBSS in the presence of a test compound (0.1, 1.0, 10, 0 μM in each case), which is a racemic form, for 1 minute, and then the cells were washed three times with ice-cooled Na^+-free HBSS. To the well, 500 μL of 1 M NaOH was added, and after 30 minutes, the cells were lysed, and the cell lysate was collected. The amount of [^14C]L-leucine in the cell lysate was determined using a liquid scintillator. The amount of protein in the cell lysate was measured using BCA Assay Kit (Thermofisher Scientific), and the uptake amount of [^14C]L-leucine per 1 mg of protein in the cell per minute was calculated.
The degree of LAT1 inhibition of the compound obtained in the present invention was compared with BCH (BCH, 2-aminobicyclo-(2,2,1)-heptane-2-carboxylic acid), which is an existing LAT1 inhibitor. In the [^14C]L-leucine uptake inhibition test described above, the degrees of inhibition of [^14C]L-leucine uptake inhibition using the compound (racemic form) obtained in Examples and BCH (0.1, 1.0, 10, 0 μM for both) were compared. […] In the table, a test compound having a higher inhibitory effect than BCH is denoted by A, a test compound having the same inhibitory effect as BCH is denoted by B, and a test compound having a lower inhibitory effect than BCH is denoted by C.

[3] = test system: Mouse triple negative breast cancer cells 4T1 and mouse colorectal cancer cells CT26; assay: BNCT-enhancing effect using mouse allograft tumor model; type: in vivo, BALB/c mice; details: Group 1: 400 mg/kg L-[10B]BPA i.v., then compound 25 mg/kg i.v. after 1 and 1.5 hours; neutron rays 5 MW for 30 minutes
Method: Mouse triple negative breast cancer cells 4T1 and mouse colorectal cancer cells CT26 were plate-cultured and then transplanted subcutaneously into the lower limbs of BALB/c mice. After 1 week, 400 mg/kg of L-[10B]BPA or a solvent as a control was intravenously administered through the tail vein. In Group 1, the compound of Example 1-45 was administered intravenously at a dose of 25 mg/kg after 1 hour and 1.5 hours from the administration of L-[10B]BPA. In Group 2, the solvent was administered instead of L-[10B]BPA, and after 1 hour and 1.5 hours, the compound of Example 1-45 obtained in the present invention was administered intravenously at a dose of 25 mg/kg. In Group 3, the solvent was administered intravenously instead of the compound of Example 1-45 after 1 hour and 1.5 hours from the administration of L-[10B]BPA. For Groups 1, 2, and 3, the lower limbs were irradiated with neutron rays under anesthesia after 2.5 hours from L-[10B]BPA administration or solvent administration as the control (5 MW for 30 minutes). The tumors were excised after 11 days from irradiation and the volumes thereof were compared.

[4] = test system: Mouse colorectal cancer-derived CT26 cells; assay: Cell proliferation inhibitory effect using mouse colorectal cancer cells (CCK-8 assay); type: cell-based; details: 72 hours compound treatment, read-out: Evaluation of IC50 (proliferation inhibition rate of 50%)
Method: Mouse colorectal cancer-derived CT26 cells were adjusted to […], seeded in a 96-well plate at 1000 cells/well, and cultured in a 10% fetal bovine serum-added RPMI 1640 medium at 5% CO2 and 37° C. The culture medium was changed 24 hours after the start of the culture, and the medium containing the compound of Example was replaced to examine the action of the compound on cell proliferation. As the compound, a concentration of 0.01, 0.03, 0.1, 0.3, 1, 3, 10, or 30 μM was used. As a control, the cells were cultured in a medium containing no compound. The number of cells was evaluated by CCK-8 assay (Cell Counting Kit-8, DOJINDO LABORATORIES) 72 hours after the start of the compound treatment, and the compound concentration (IC50 value) giving a proliferation inhibition rate of 50% as compared with the control was calculated.

T1 sequence (Q01650 whole entry): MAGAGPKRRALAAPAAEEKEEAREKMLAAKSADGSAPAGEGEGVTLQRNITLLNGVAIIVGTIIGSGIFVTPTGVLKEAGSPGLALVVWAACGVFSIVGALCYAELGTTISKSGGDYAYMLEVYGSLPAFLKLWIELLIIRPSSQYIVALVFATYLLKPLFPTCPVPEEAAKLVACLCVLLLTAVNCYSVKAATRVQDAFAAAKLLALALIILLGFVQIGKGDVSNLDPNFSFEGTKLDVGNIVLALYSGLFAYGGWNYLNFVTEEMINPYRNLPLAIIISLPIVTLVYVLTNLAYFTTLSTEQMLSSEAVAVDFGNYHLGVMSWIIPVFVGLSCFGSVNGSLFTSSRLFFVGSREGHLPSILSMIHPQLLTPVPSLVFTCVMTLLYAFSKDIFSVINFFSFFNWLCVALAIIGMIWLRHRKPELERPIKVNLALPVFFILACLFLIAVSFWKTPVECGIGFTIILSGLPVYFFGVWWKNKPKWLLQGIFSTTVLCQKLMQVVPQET
T1 sequence (P08195 102-630 partner): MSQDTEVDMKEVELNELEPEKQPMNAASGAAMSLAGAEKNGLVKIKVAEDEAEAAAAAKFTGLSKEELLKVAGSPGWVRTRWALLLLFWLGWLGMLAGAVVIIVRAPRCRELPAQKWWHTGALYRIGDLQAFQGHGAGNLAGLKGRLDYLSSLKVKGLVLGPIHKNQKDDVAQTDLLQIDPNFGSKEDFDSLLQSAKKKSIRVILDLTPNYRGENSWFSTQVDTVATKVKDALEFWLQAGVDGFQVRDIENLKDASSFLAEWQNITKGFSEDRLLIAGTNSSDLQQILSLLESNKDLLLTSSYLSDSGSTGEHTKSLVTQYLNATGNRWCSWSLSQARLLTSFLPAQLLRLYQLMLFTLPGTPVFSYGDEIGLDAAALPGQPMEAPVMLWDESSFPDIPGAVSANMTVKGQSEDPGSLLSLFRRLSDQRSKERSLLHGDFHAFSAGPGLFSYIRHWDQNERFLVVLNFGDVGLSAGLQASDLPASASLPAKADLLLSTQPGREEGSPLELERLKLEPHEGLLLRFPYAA

| SMILES | sustained LAT1 inhibitory effect as compared with Example 1-1 [1] | Assay Data: degree of [14C]L-leucine uptake inhibition compared with BCH [2] | LAT1 inhibitory effect, compounds singled out (in words) [2] | antitumor effect by neutron irradiation (tumor volume 11 days after irradiation) [3] | IC50 [4] |
| --- | --- | --- | --- | --- | --- |
| Cl.NC1(C(=O)O)CCc2ccc(Oc3ccccc3-c3cccc(F)c3F)cc2C1 (centres unmarked) [Example 1-45, 2-Carboxy-7-((2′,3′-difluoro-[1,1′-biphenyl]-2-yl)oxy)-1,2,3,4-tetrahydronaphthalene-2-aminium chloride] | more remarkable effect | A | particularly remarkable effects | large antitumor effect | ≤ 900 nM |
| Cl.NC1(C(=O)O)CCc2ccc(Oc3ccccc3-c3cccc(Cl)c3Cl)cc2C1 (centres unmarked) [Example 1-53, 2-carboxy-7-((2′,3′-dichloro-[1,1′-biphenyl]-2-yl)oxy)-1,2,3,4-tetrahydronaphthalene-2-aminium chloride] | more remarkable effect | A | particularly remarkable effects |  | ≤ 900 nM |
| Cl.NC1(C(=O)O)CCc2ccc(Oc3ccccc3-c3cccc(Cl)c3F)cc2C1 (centres unmarked) [Example 1-54, 2-carboxy-7-((3′-Chloro-2′-fluoro-[1,1′-biphenyl]-2-yl)oxy)-1,2,3,4-tetrahydronaphthalene-2-aminium chloride] | more remarkable effect | A | particularly remarkable effects |  | ≤ 900 nM |
| Cc1cccc(-c2ccccc2Oc2ccc3c(c2)CC(N)(C(=O)O)CC3)c1F.Cl (centres unmarked) [Example 1-55, 2-Carboxy-7-((2′-fluoro-3′-methyl-[1,1′-biphenyl]-2-yl)oxy)-1,2,3,4-tetrahydronaphthalene-2-aminium chloride] | more remarkable effect | A | particularly remarkable effects |  | ≤ 900 nM |
| Cc1cccc(-c2ccccc2Oc2ccc3c(c2)CC(N)(C(=O)O)CC3)c1Cl.Cl (centres unmarked) [Example 1-57, 2-carboxy-7-((2′-Chloro-3′-methyl-[1,1′-biphenyl]-2-yl)oxy)-1,2,3,4-tetrahydronaphthalene-2-aminium chloride] | more remarkable effect | A | particularly remarkable effects |  | ≤ 900 nM |
| Cl.NC1(C(=O)O)CCc2ccc(Oc3ccccc3-c3ccc(F)c(F)c3F)cc2C1 (centres unmarked) [Example 1-58, 2-carboxy-7-((2′,3′,4′-trifluoro-[1,1′-biphenyl]-2-yl)oxy)-1,2,3,4-tetrahydronaphthalene-2-aminium chloride] | more remarkable effect | A | particularly remarkable effects |  | ≤ 900 nM |
| Cl.NC1(C(=O)O)CCc2ccc(Oc3ccccc3-c3ccc(F)cc3F)cc2C1 (centres unmarked) [Example 1-59, 2-Carboxy-7-((2′,4′-difluoro-[1,1′-biphenyl]-2-yl)oxy)-1,2,3,4-tetrahydronaphthalene-2-aminium chloride] | more remarkable effect | A |  |  | ≤ 900 nM |
| C=Cc1cccc(-c2ccccc2Oc2ccc3c(c2)CC(N)(C(=O)O)CC3)c1.Cl (centres unmarked) [Example 1-62, 2-carboxy-7-((3′-vinyl-[1,1′-biphenyl]-2-yl)oxy)-1,2,3,4-tetrahydronaphthalene-2-aminium chloride] | more remarkable effect | A |  |  | ≤ 900 nM |
| Cl.NC1(C(=O)O)CCc2ccc(Oc3ccccc3-c3cc(F)cc(F)c3F)cc2C1 (centres unmarked) [Example 1-63, 2-carboxy-7-((2′,3′,5′-trifluoro-[1,1′-biphenyl]-2-yl)oxy)-1,2,3,4-tetrahydronaphthalene-2-aminium chloride] | more remarkable effect | A | particularly remarkable effects |  | ≤ 900 nM |
